Patent US6114310A, “Efflux pump inhibitors” (priority 1998, dated 2000)

Test system: Pseudomonas aeruginosa PAM1001
Assay: microbe, parasite or virus in culture
Type: cell-based
Protocol: The activity of efflux pump inhibitors (EPI) in combination with fluoroquinolones, such as levofloxacin, is assessed by the checkerboard assay (Antimicrobial Combinations. In Antibiotics in Laboratory Medicine, Ed. Victor Lorian, M. D., Fourth edition, 1996, pp 333-338) using broth microdilution method performed as recommended by the NCCLS (National Committee for Clinical Laboratory Standards (NCCLS). 1997. Methods for Dilution of Antimicrobial Susceptibility Tests for Bacteria That Grow Aerobically--Fourth Edition; Approved Standard. NCCLS Document M7-A4, Vol 17 No.2). The test organism used is Pseudomonas aeruginosa PAM1001.
In this assay, multiple dilutions of two drugs, namely the EPI and levofloxacin, are being tested, alone and in combination, at concentrations equal to, above and below their respective minimal inhibitory concentrations (MICs).
Stock solutions are further diluted, according to the needs of a particular assay, in Mueller Hinton Broth (MHB). Stock solution can be stored at -80° C. Quinolones are solubilized according to the instructions of the manufacturers, at a concentration of 1 mg/ml. They are then further diluted in MHB. Stock solution can be stored at -80° C.
The checkerboard assay is performed in microtiter plates. Levofloxacin is diluted in the x axis, each column containing a single concentration of levofloxacin. The EPI is diluted in the y axis, each row containing an equal concentration of EPI. The result of these manipulations is that each well of the microtiter plate contains a unique combination of concentrations of the two agents. Each EPI are tested independently.
The assay is performed in MHB with a final bacterial inoculum of 5×10^5 CFU/ml (from an early-log phase culture). Microtiter plates are incubated during 20 h at 35° C. and are read using a microtiterplate reader (Molecular Devices) at 650 nm as well as visual observation using a microtiterplate reading mirror.

[1] = Table 1, EPI Conc. μg/ml (number not given; column between 10 and 40 μg/ml)
[2] = Table 2, EPI Conc. μg/ml (number not given; column between 10 and 40 μg/ml)
[3] = Table 3, EPI Conc. μg/ml (number not given; column between 10 and 40 μg/ml)
[4] = Table 4, EPI Conc. μg/ml (number not given; column between 10 and 40 μg/ml)

Substance | Levofloxacin MIC Against P. aeruginosa PAM1001 in Presence of Efflux Pump Inhibitor (EPI), Minimum Inhibitory Concentration (Table 1, EPI Conc. 0 μg/ml) [µg/mL] | Levofloxacin MIC Against P. aeruginosa PAM1001 in Presence of Efflux Pump Inhibitor (EPI), Minimum Inhibitory Concentration (Table 1, EPI Conc. 0.625 μg/ml) [µg/mL] | Levofloxacin MIC Against P. aeruginosa PAM1001 in Presence of Efflux Pump Inhibitor (EPI), Minimum Inhibitory Concentration (Table 1, EPI Conc. 5 μg/ml) [µg/mL] | Levofloxacin MIC Against P. aeruginosa PAM1001 in Presence of Efflux Pump Inhibitor (EPI), Minimum Inhibitory Concentration (Table 1, EPI Conc. 10 μg/ml) [µg/mL] | Levofloxacin MIC Against P. aeruginosa PAM1001 in Presence of Efflux Pump Inhibitor (EPI), Minimum Inhibitory Concentration (Table 1, EPI Conc. 40 μg/ml) [µg/mL] | Levofloxacin MIC Against P. aeruginosa PAM1001 in Presence of Efflux Pump Inhibitor (EPI), Minimum Inhibitory Concentration [1] [µg/mL] | Levofloxacin MIC Against P. aeruginosa PAM1001 in Presence of Efflux Pump Inhibitor (EPI), Minimum Inhibitory Concentration (Table 2, EPI Conc. 0 μg/ml) [µg/mL] | Levofloxacin MIC Against P. aeruginosa PAM1001 in Presence of Efflux Pump Inhibitor (EPI), Minimum Inhibitory Concentration (Table 2, EPI Conc. 0.625 μg/ml) [µg/mL] | Levofloxacin MIC Against P. aeruginosa PAM1001 in Presence of Efflux Pump Inhibitor (EPI), Minimum Inhibitory Concentration (Table 2, EPI Conc. 5 μg/ml) [µg/mL] | Levofloxacin MIC Against P. aeruginosa PAM1001 in Presence of Efflux Pump Inhibitor (EPI), Minimum Inhibitory Concentration (Table 2, EPI Conc. 10 μg/ml) [µg/mL] | Levofloxacin MIC Against P. aeruginosa PAM1001 in Presence of Efflux Pump Inhibitor (EPI), Minimum Inhibitory Concentration (Table 2, EPI Conc. 40 μg/ml) [µg/mL] | Levofloxacin MIC Against P. aeruginosa PAM1001 in Presence of Efflux Pump Inhibitor (EPI), Minimum Inhibitory Concentration [2] [µg/mL] | Levofloxacin MIC Against P. aeruginosa PAM1001 in Presence of Efflux Pump Inhibitor (EPI), Minimum Inhibitory Concentration (Table 3, EPI Conc. 0 μg/ml) [µg/mL] | Levofloxacin MIC Against P. aeruginosa PAM1001 in Presence of Efflux Pump Inhibitor (EPI), Minimum Inhibitory Concentration (Table 3, EPI Conc. 0.625 μg/ml) [µg/mL] | Levofloxacin MIC Against P. aeruginosa PAM1001 in Presence of Efflux Pump Inhibitor (EPI), Minimum Inhibitory Concentration (Table 3, EPI Conc. 5 μg/ml) [µg/mL] | Levofloxacin MIC Against P. aeruginosa PAM1001 in Presence of Efflux Pump Inhibitor (EPI), Minimum Inhibitory Concentration (Table 3, EPI Conc. 10 μg/ml) [µg/mL] | Levofloxacin MIC Against P. aeruginosa PAM1001 in Presence of Efflux Pump Inhibitor (EPI), Minimum Inhibitory Concentration [3] [µg/mL] | Levofloxacin MIC Against P. aeruginosa PAM1001 in Presence of Efflux Pump Inhibitor (EPI), Minimum Inhibitory Concentration (Table 4, EPI Conc. 0 μg/ml) [µg/mL] | Levofloxacin MIC Against P. aeruginosa PAM1001 in Presence of Efflux Pump Inhibitor (EPI), Minimum Inhibitory Concentration (Table 4, EPI Conc. 0.625 μg/ml) [µg/mL] | Levofloxacin MIC Against P. aeruginosa PAM1001 in Presence of Efflux Pump Inhibitor (EPI), Minimum Inhibitory Concentration (Table 4, EPI Conc. 5 μg/ml) [µg/mL] | other results
D-Lysyl-β-N-(Ethylthioethyl)alanine 2-Naphthylamide Trifluoroacetate [Example 25] | 4 | 4 | 1 | 0.06 | 0.06 | 0.06 | 4 | 4 | 1 | 0.06 | 0.06 | 0.06 | 4 | 4 | 2 | 1 | 0.50 | 4 | 4 | 0.125 | Levofloxacin MIC Against P. aeruginosa PAM1001 in Presence of Efflux Pump Inhibitor (EPI), Minimum Inhibitory Concentration (Table 1, EPI Conc. […]): 4 µg/mL; Levofloxacin MIC Against P. aeruginosa PAM1001 in Presence of Efflux Pump Inhibitor (EPI), Minimum Inhibitory Concentration (Table 3, EPI Conc. 40 μg/ml): 0.25 µg/mL; Levofloxacin MIC Against P. aeruginosa PAM1001 in Presence of Efflux Pump Inhibitor (EPI), Minimum Inhibitory Concentration (Table 3, EPI Conc. […]): 4 µg/mL; Levofloxacin MIC Against P. aeruginosa PAM1001 in Presence of Efflux Pump Inhibitor (EPI), Minimum Inhibitory Concentration (Table 4, EPI Conc. 10 μg/ml): 0.06 µg/mL; Levofloxacin MIC Against P. aeruginosa PAM1001 in Presence of Efflux Pump Inhibitor (EPI), Minimum Inhibitory Concentration (Table 4, EPI Conc. 40 μg/ml): 0.125 µg/mL; Levofloxacin MIC Against P. aeruginosa PAM1001 in Presence of Efflux Pump Inhibitor (EPI), Minimum Inhibitory Concentration [4]: 0.125 µg/mL
D-Lysyl-β-N-(Ethylthioethyl)alanine 2-Naphthylamide Trifluoroacetate [Example 26] | 4 | 4 | 1 | 0.125 | 0.06 | 0.125 | 4 | 4 | 2 | 0.125 | 0.06 | 0.125 | 4 | 4 | 0.06 | 0.015 | 0.03 | 4 | 4 | 1 | Levofloxacin MIC Against P. aeruginosa PAM1001 in Presence of Efflux Pump Inhibitor (EPI), Minimum Inhibitory Concentration (Table 2, EPI Conc. […]): 4 µg/mL; Levofloxacin MIC Against P. aeruginosa PAM1001 in Presence of Efflux Pump Inhibitor (EPI), Minimum Inhibitory Concentration (Table 4, EPI Conc. 10 μg/ml): 0.25 µg/mL; Levofloxacin MIC Against P. aeruginosa PAM1001 in Presence of Efflux Pump Inhibitor (EPI), Minimum Inhibitory Concentration (Table 4, EPI Conc. 40 μg/ml): 0.03 µg/mL; Levofloxacin MIC Against P. aeruginosa PAM1001 in Presence of Efflux Pump Inhibitor (EPI), Minimum Inhibitory Concentration (Table 4, EPI Conc. […]): 4 µg/mL; Levofloxacin MIC Against P. aeruginosa PAM1001 in Presence of Efflux Pump Inhibitor (EPI), Minimum Inhibitory Concentration [4]: 0.125 µg/mL
D-Ornithyl-D-phenylalanine quinoline-3-amide [Compound 7 (Table 2)] | 4 | 4 | 4 | 2 | 0.50 | 1 | 4 | 4 | 0.25 | 0.06 | 0.06 | 0.06 | 4 | 4 | 0.015 | 0.015 | 0.03 | 4 | 4 | 0.06 | Levofloxacin MIC Against P. aeruginosa PAM1001 in Presence of Efflux Pump Inhibitor (EPI), Minimum Inhibitory Concentration (Table 1, EPI Conc. […]): 4 µg/mL; Levofloxacin MIC Against P. aeruginosa PAM1001 in Presence of Efflux Pump Inhibitor (EPI), Minimum Inhibitory Concentration (Table 4, EPI Conc. 10 μg/ml): 0.03 µg/mL; Levofloxacin MIC Against P. aeruginosa PAM1001 in Presence of Efflux Pump Inhibitor (EPI), Minimum Inhibitory Concentration (Table 4, EPI Conc. 40 μg/ml): 0.03 µg/mL; Levofloxacin MIC Against P. aeruginosa PAM1001 in Presence of Efflux Pump Inhibitor (EPI), Minimum Inhibitory Concentration [4]: 0.03 µg/mL
